pIC50: −log10 of the molar value.

In general, pIC50 refers to −log10 of the IC50, conventionally taken in molar units.

Human complement C1s enzyme, sequence (P09871 438-688 limits assumed): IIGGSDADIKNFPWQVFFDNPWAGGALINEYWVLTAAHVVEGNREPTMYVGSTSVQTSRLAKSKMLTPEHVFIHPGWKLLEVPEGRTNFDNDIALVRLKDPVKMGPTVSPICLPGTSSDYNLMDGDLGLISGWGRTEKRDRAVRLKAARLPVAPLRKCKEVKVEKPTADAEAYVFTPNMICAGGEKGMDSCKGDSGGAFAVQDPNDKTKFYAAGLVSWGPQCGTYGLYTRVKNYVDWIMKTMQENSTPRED
Human complement C1s enzyme, sequence (P09871 16-437 partner limits assumed): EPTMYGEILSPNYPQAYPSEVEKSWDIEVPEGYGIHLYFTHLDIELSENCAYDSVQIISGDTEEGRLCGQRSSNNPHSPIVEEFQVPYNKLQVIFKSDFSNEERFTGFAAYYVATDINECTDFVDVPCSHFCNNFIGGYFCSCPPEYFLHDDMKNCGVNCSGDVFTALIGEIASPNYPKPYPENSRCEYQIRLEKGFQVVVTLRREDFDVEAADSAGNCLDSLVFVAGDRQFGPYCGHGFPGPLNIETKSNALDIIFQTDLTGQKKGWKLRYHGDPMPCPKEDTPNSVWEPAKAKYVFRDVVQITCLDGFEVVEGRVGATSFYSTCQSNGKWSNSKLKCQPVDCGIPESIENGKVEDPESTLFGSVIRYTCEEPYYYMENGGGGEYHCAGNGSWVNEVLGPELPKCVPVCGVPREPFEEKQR

In one test the target is Human complement C1s enzyme (Homo sapiens (Human), UniProt P09871). The test can be described thus: Human C1s enzyme assay. The format is biochemical. Conditions: Human C1s enzyme assay of Example 3; read-out: IC50 (Stars). On the procedure:
Human complement C1s enzyme (purified from human serum, Complement Technology, Inc.) at 1.16 nM final concentration was incubated with test compound at various concentrations for 5 min at room temperature in 50 mM Tris, 1 M NaCl, pH 7.5. A synthetic substrate Z-L-Lys-SBzl and DTNB (Ellman's reagent) were added to final concentrations of 100 μM each. Absorbance at 405 nm (A405) was recorded at 30 second intervals for 30 min using a microplate spectrophotometer. IC50 values were calculated by nonlinear regression of complement C1s reaction rates as a function of test compound concentration.
Regarding `COC[C@@H]1C[C@@H](C(=O)N[C@H](C)c2cc(C(=N)N)cs2)N(C(=O)CNC(=O)c2ccc(Oc3ccc(F)cc3)cc2)C1` (relative stereo) [Compound 79, (2S,4R*)—N—((R)-1-(4-carbamimidoylthiophen-2-yl)ethyl)-1-((4-(4-fluorophenoxy)benzoyl)glycyl)-4-(methoxymethyl)pyrrolidine-2-carboxamide], the negative-log IC50 (pIC50) was more than 7.00.
The same measure, in the same setting: the same measure for `COC[C@H]1C[C@@H](C(=O)N[C@H](C)c2cc(C(=N)N)cs2)N(C(=O)CNC(=O)c2ccc(Oc3ccc(F)cc3)cc2)C1` (relative stereo) [Compound 80, (2S,4S*)—N—((R)-1-(4-carbamimidoylthiophen-2-yl)ethyl)-1-((4-(4-fluorophenoxy)benzoyl)glycyl)-4-(methoxymethyl)pyrrolidine-2-carboxamide]: more than 7.00; for `COC[C@H]1C[C@@H](C(=O)N[C@H](C)c2cc(C(=N)N)cs2)N(C(=O)CNC(=O)c2ccc3c(c2)-c2ccccc2C3(F)F)C1` (relative stereo) [Compound 117, (2S,4S*)—N—((R)-1-(4-carbamimidoylthiophen-2-yl)ethyl)-1-((9,9-difluoro-9H-fluorene-3-carbonyl)glycyl)-4-(methoxymethyl)pyrrolidine-2-carboxamide]: more than 7.00; for `COC[C@@H]1C[C@@H](C(=O)N[C@H](C)c2cc(C(=N)N)cs2)N(C(=O)CNC(=O)c2ccc3c(c2)-c2ccccc2C3(F)F)C1` (relative stereo) [Compound 118, (2S,4R*)—N—((R)-1-(4-carbamimidoylthiophen-2-yl)ethyl)-1-((9,9-difluoro-9H-fluorene-3-carbonyl)glycyl)-4-(methoxymethyl)pyrrolidine-2-carboxamide]: more than 7.00.
Same read-out and setting: the same measure for `C[C@@H](NC(=O)[C@@H]1C[C@@H](C2OCCCO2)CN1C(=O)CNC(=O)c1ccc(Oc2ccc(F)cc2)cc1)c1cc(C(=N)N)cs1` (relative stereo) [Compound 160, (2S,4R*)—N—((R)-1-(4-carbamimidoylthiophen-2-yl)ethyl)-4-(1,3-dioxan-2-yl)-1-((4-(4-fluorophenoxy)benzoyl)glycyl)pyrrolidine-2-carboxamide]: more than 7.00.
Regarding `C[C@@H](NC(=O)[C@@H]1C[C@H](C2OCCCO2)CN1C(=O)CNC(=O)c1ccc(Oc2ccc(F)cc2)cc1)c1cc(C(=N)N)cs1` (relative stereo) [Compound 161, (2S,4S*)—N—((R)-1-(4-carbamimidoylthiophen-2-yl)ethyl)-4-(1,3-dioxan-2-yl)-1-((4-(4-fluorophenoxy)benzoyl)glycyl)pyrrolidine-2-carboxamide], the pIC50 is more than 7.00.
The same measure, in the same setting: the same measure for `CC(NC(=O)[C@@H]1C[C@@H](Oc2ccccc2)CN1C(=O)CNC(=O)c1ccc2c(c1)-c1ccccc1C2(F)F)c1cc(C(=N)N)cs1` (stereo in doubt) [Compound 51, (2S,4R)—N—((S)-1-(4-carbamimidoylthiophen-2-yl)ethyl)-1-((9,9-difluoro-9H-fluorene-3-carbonyl)glycyl)-4-phenoxypyrrolidine-2-carboxamide]: more than 7.00; for `CC(NC(=O)[C@@H]1CC2(CN1C(=O)CNC(=O)c1ccc(-c3ccc(Cl)cn3)cc1)OCCO2)c1cc(C(=N)N)cs1` (stereo in doubt) [Compound 151, (S)—N—((S)-1-(4-carbamimidoylthiophen-2-yl)ethyl)-7-((4-(5-chloropyridin-2-yl)benzoyl)glycyl)-1,4-dioxa-7-azaspiro[4.4]nonane-8-carboxamide]: more than 7.00; for `CC(NC(=O)[C@@H]1CC2(CN1C(=O)CNC(=O)c1ccc(-c3ccccc3)cn1)OCCO2)c1cc(C(=N)N)cs1` (stereo in doubt) [Compound 167, (S)—N—((S)-1-(4-carbamimidoylthiophen-2-yl)ethyl)-7-((5-phenylpicolinoyl)glycyl)-1,4-dioxa-7-azaspiro[4.4]nonane-8-carboxamide]: more than 7.00.
Consider `C[C@@]12C[C@@H]1N(C(=O)CNC(=O)c1ccc3c(c1)CCCO3)[C@H](C(=O)NCc1cc(C(=N)N)cs1)C2` [Compound 1, (1S,3S,5S)—N-((4-carbamimidoylthiophen-2-yl)methyl)-2-((chromane-6-carbonyl)glycyl)-5-methyl-2-azabicyclo[3.1.0]hexane-3-carboxamide], for which the pIC50 is more than 7.00.
On to `C[C@H](O)[C@H](O)[C@@H](O)[C@@H](O)CNCC(=O)NCCOC[C@@]12C[C@@H]1N(C(=O)CNC(=O)CCCOc1ccccc1)[C@H](C(=O)N[C@H](C)c1cc(C(=N)N)cs1)C2` [Compound 2, (1S,3S,5R)—N—((R)-1-(4-carbamimidoylthiophen-2-yl)ethyl)-2-((4-phenoxybutanoyl)glycyl)-5-((2-(2-(((2S,3S,4S,5S)-2,3,4,5-tetrahydroxyhexyl)amino)acetamido)ethoxy)methyl)-2-azabicyclo[3.1.0]hexane-3-carboxamide], for which the pIC50 was more than 7.00.
For `N=C(N)c1csc(CNC(=O)[C@@H]2C[C@@H](OC(F)F)CN2C(=O)CNC(=O)c2ccc(Oc3ccc(F)cc3)cc2)c1` [Compound 3, (2S,4R)—N-((4-carbamimidoylthiophen-2-yl)methyl)-4-(difluoromethoxy)-1-((4-(4-fluorophenoxy)benzoyl)glycyl)pyrrolidine-2-carboxamide], the pIC50 is more than 7.00.
As to `C[C@@H](NC(=O)[C@@H]1C[C@]2(C)C[C@@H]2N1C(=O)CNC(=O)c1ccc2c(c1)-c1ccccc1C2(F)F)c1cc(C(=N)N)cs1` [Compound 4, (1S,3S,5S)—N—((R)-1-(4-carbamimidoylthiophen-2-yl)ethyl)-2-((9,9-difluoro-9H-fluorene-3-carbonyl)glycyl)-5-methyl-2-azabicyclo[3.1.0]hexane-3-carboxamide], the pIC50 is more than 7.00.
Take `C[C@@H](NC(=O)[C@@H]1C[C@@H](OC(F)F)CN1C(=O)CNC(=O)c1ccc(Oc2ccc(C(F)(F)F)cc2)cc1)c1cc(C(=N)N)cs1` [Compound 5, (2S,4R)—N—((R)-1-(4-carbamimidoylthiophen-2-yl)ethyl)-4-(difluoromethoxy)-1-((4-(4-(trifluoromethyl)phenoxy)benzoyl)glycyl)pyrrolidine-2-carboxamide]: the pIC50 was more than 7.00.
On the same count and under the same terms, the same measure for `Cc1ccc(Oc2ccc(C(=O)NCC(=O)N3C[C@H](OC(F)F)C[C@H]3C(=O)N[C@H](C)c3cc(C(=N)N)cs3)cc2)cc1` [Compound 6, (2S,4R)—N—((R)-1-(4-carbamimidoylthiophen-2-yl)ethyl)-4-(difluoromethoxy)-1-((4-(p-tolyloxy)benzoyl)glycyl)pyrrolidine-2-carboxamide]: more than 7.00; for `Cc1ccc(Oc2ccc(C(=O)NCC(=O)N3[C@H]4C[C@@]4(C)C[C@H]3C(=O)N[C@H](C)c3cc(C(=N)N)cs3)cc2)cc1` [Compound 7, (1S,3S,5S)—N—((R)-1-(4-carbamimidoylthiophen-2-yl)ethyl)-5-methyl-2-((4-(p-tolyloxy)benzoyl)glycyl)-2-azabicyclo[3.1.0]hexane-3-carboxamide]: more than 7.00.

The test is the same for the next values; noted with them: Human complement C1s enzyme 1.16 nM, substrate Z-L-Lys-SBzl 100 μM, assay of Example 3; read-out: IC50 (Stars).
`COC[C@H]1C[C@@H](C(=O)N[C@H](C)c2cc(C(=N)N)cs2)N(C(=O)CNC(=O)c2ccc3oc4ccccc4c3c2)C1` (relative stereo) [Compound 219, (2S,4S*)—N—((R)-1-(4-carbamimidoylthiophen-2-yl)ethyl)-1-((dibenzo[b,d]furan-2-carbonyl)glycyl)-4-(methoxymethyl)pyrrolidine-2-carboxamide]: the pIC50 is more than 7.00.
Still for that read-out and setting: with `N=C(N)c1csc([C@@H](NC(=O)[C@@H]2CC3(CN2C(=O)CNC(=O)c2ccc4c(c2)-c2ccccc2C4(F)F)OCCO3)C(F)(F)F)c1` (relative stereo) [Compound 275, (S)—N—((S*)-1-(4-carbamimidoylthiophen-2-yl)-2,2,2-trifluoroethyl)-7-((9,9-difluoro-9H-fluorene-3-carbonyl)glycyl)-1,4-dioxa-7-azaspiro[4.4]nonane-8-carboxamide] the figure was more than 7.00; with `COC[C@@H]1C[C@@H](C(=O)N[C@H](C)c2cc(C(=N)N)cs2)N(C(=O)CNC(=O)c2ccc3oc4ccccc4c3c2)C1` (relative stereo) [Compound 295, (2S,4R*)—N—((R)-1-(4-carbamimidoylthiophen-2-yl)ethyl)-1-((dibenzo[b,d]furan-2-carbonyl)glycyl)-4-(methoxymethyl)pyrrolidine-2-carboxamide], more than 7.00.
For `C[C@@H](NC(=O)[C@@H]1C[C@@H](CO)CN1C(=O)CNC(=O)c1ccc2c(c1)-c1ccccc1C2(F)F)c1cc(C(=N)N)cs1` (relative stereo) [Compound 305, (2S,4R*)—N—((R)-1-(4-carbamimidoylthiophen-2-yl)ethyl)-1-((9,9-difluoro-9H-fluorene-3-carbonyl)glycyl)-4-(hydroxymethyl)pyrrolidine-2-carboxamide], the pIC50 is more than 7.00.
Same read-out and setting: with `C[C@@H](NC(=O)[C@@H]1C[C@H](CO)CN1C(=O)CNC(=O)c1ccc2c(c1)-c1ccccc1C2(F)F)c1cc(C(=N)N)cs1` (relative stereo) [Compound 306, (2S,4S*)—N—((R)-1-(4-carbamimidoylthiophen-2-yl)ethyl)-1-((9,9-difluoro-9H-fluorene-3-carbonyl)glycyl)-4-(hydroxymethyl)pyrrolidine-2-carboxamide] the figure was more than 7.00; with `N=C(N)c1csc([C@H](NC(=O)[C@@H]2CC3(CN2C(=O)CNC(=O)c2ccc4c(c2)-c2ccccc2C4(F)F)OCCO3)C(F)(F)F)c1` (single isomer, unassigned) [Compound 246, (S)—N—((R*)-1-(4-carbamimidoylthiophen-2-yl)-2,2,2-trifluoroethyl)-7-((9,9-difluoro-9H-fluorene-3-carbonyl)glycyl)-1,4-dioxa-7-azaspiro[4.4]nonane-8-carboxamide], more than 7.00.
